Results: publication PMC4467469 (Methods in molecular biology (Clifton, N.J.), 2012)

Target: Cdc42 (Homo sapiens, UniProt P60953)
Test: equilibrium binding by flow cytometry on beads

Chain of Cdc42 (P60953 1-188): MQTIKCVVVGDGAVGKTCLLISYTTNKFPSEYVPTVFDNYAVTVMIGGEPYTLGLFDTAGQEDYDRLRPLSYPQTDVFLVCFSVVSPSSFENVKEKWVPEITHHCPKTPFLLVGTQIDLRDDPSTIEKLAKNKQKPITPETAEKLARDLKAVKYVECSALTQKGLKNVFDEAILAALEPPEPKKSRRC

Kd: 0.6 nM
SMILES: Cc1cc(C)n2c1C=C1C=CC(CCC(=O)NCCNC(=O)OC3C(COP(=O)(O)OP(=O)(O)OP(=O)(O)O)OC(n4cnc5c(=O)[nH]c(N)nc54)C3O)=[N+]1[B-]2(F)F (stereo not shown) [BODIPY-FL-GTP]
